# Measurements published in patent US11827628B2, “Compositions and methods for inhibition of the JAK pathway” (Rigel Pharmaceuticals, Inc., priority 2005, dated 2023).
# Structures can show the parent of a compound that is named as a salt.
# System: up-regulation of ICAM-1 (CD54) by IFNγ in A549 lung epithelial cells
# Assay: A549 Epithelial Line Stimulated with IFNγ (ICAM-1 surface expression, FACS)
# Format: cell-based, human
# Settings: A549 cells stimulated with IFNγ, ICAM-1 expression by FACS; read-out: IC50, Example 43
# Outline: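 ICAM-1 (CD54) flow cytometry on live-gated A549 cells, geometric mean versus dose giving EC50. Cells received IFNγ at 75 ng/mL for 24 h after a 1 h compound pre-treatment spanning 30 μM to 14 nM in medium with 5% FBS and 0.3% DMSO.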
row,IC50 [µM],Compound
1,9.96,"COc1ccc(Nc2nc(Nc3cccc(S(=O)(=O)NN4CCC(C)CC4)c3)ncc2F)cc1Cl [VI-9, N4-(3-Chloro-4-methoxyphenyl)-5-fluoro-N2-[3-(4-methylpipendin-1-yl)aminosulfonylphenyl]-2,4-pyrimidinediamine]"
2,31.3,"NS(=O)(=O)c1cccc(Nc2ncc(F)c(Nc3ccc(Cc4ccncc4)cc3)n2)c1 [III-129, N2-(3-Aminosulfonylphenyl)-5-fluoro-N4-[4-(4-pyridylmethyl)phenyl]-2,4-pyrimidinediamine Methanesulfonic Acid Salt]"
3,9.24,"COc1ccc(CN2C(=O)C(C)Oc3ccc(Nc4nc(Nc5ccc(S(N)(=O)=O)cc5)ncc4F)cc32)cc1 (racemic) [Compound V-4, Racemic N2-(4-Aminosulphonylphenyl)-5-fluoro-N4-[2-methyl-3-oxo-4-(4-methoxybenzyl)-benz[1,4]oxazin-6-yl]-2,4-pyrimidinediamine]"
4,24.9,"N4-(3,4-Dichlorophenyl)-5-fluoro-N2-[3-(4-methylpipendin-1-yl)aminosulfonylphenyl]-2,4-pyrimidinediamine [VI-10]"
5,5.9,"Cc1noc(CCc2ccc(Nc3nc(Nc4cccc(S(N)(=O)=O)c4)ncc3F)cc2)n1 [III-106, N2-(3-Aminosulfonylphenyl)-5-fluoro-N4-[4-(3-methyl-1,2,4-oxadiazol-5-yl)ethylenephenyl]-2,4-pyrimidinediamine]"

# Same assay, conditions: Homo sapiens, A549, A549 cells stimulated with IFNγ, ICAM-1 expression by FACS; read-out: IC50, Example 43
row,IC50 [µM],Compound
1,4.98,Cc1cc2ccc(CNc3nc(Nc4cccc(S(N)(=O)=O)c4)ncc3F)cc2[nH]1 [Compound X-3]
2,8.17,"Cc1cc(Nc2nc(Nc3ccc(S(N)(=O)=O)cc3)ncc2F)cc(C)c1N1CCN(C)CC1 [IX-44, N2-(4-Aminosulfonylphenyl)-N4-[3,5-dimethyl-4-(4-methylpiperazin-1-yl]phenyl)-5-fluoro-2,4-pyrimidinediamine]"
3,9.56,"COC(=O)c1ccc(Nc2nc(Nc3ccc(F)c(S(N)(=O)=O)c3)ncc2F)s1 [IX-48, N2-(3-Aminosulfonyl-4-fluorophenyl)-5-fluoro-N4-(5-methoxycarbonyl-thiophene-2-yl)-2,4-pyrimidinediamine]"

# Same assay, conditions: Homo sapiens, A549, A549 epithelial line stimulated with IFNγ; ICAM-1 expression by FACS; read-out: IC50, Example 43
row,IC50 [µM],Compound
1,15.6,"Cc1cnc(Nc2ccc(Cl)c(S(N)(=O)=O)c2)nc1Nc1ccc(OCC(=O)N(C)C)c(Cl)c1 [Compound I-141, N2-(3-Aminosulfonyl-4-chlorophenyl)-N4-(3-chloro-4-dimethylaminocarbonylmethoxyphenyl)-5-methyl-2,4-pyrimidinediamine]"
2,4.97,"COc1ccc(Nc2ncc(F)c(Nc3ccc(OCC#N)cc3)n2)cc1S(N)(=O)=O [Compound I-56, N2-(3-Aminosulfonyl-4-methoxyphenyl)-N4-(4-cyanomethoxyphenyl)-5-fluoro-2,4-pyrimidinediamine]"
3,11.1,"Cc1cc(COc2ccc(Nc3nc(Nc4cccc(S(=O)(=O)NCc5oc(=O)oc5C)c4)ncc3F)cc2)no1 [Compound I-247, N2-{3-[(N-5-Methyl-1,3-dioxolene-2-one-4-yl)methylene]aminosulfonylphenyl}-5-fluoro-N4-[4-(5-methylisoxazol-3-yl)methyleneoxyphenyl]-2,4-pyrimidinediamine]"
4,3.52,"Cc1cnc(Nc2ccc(Cl)c(S(N)(=O)=O)c2)nc1Nc1ccc(CCC#N)cc1 [III-12, N2-(3-Aminosulfonyl-4-chlorophenyl)-N4-[4-(2-cyanoethyl)phenyl]-5-methyl-2,4-pyrimidinediamine]"
5,10.6,"Cc1ccc(Nc2ncc(F)c(NCCc3ccc(-n4ccnc4)cc3)n2)cc1S(N)(=O)=O [III-88, N2-(3-Aminosulfonyl-4-methylphenyl)-5-fluoro-N4-[4-(1-imidazolyl)phenethyl]-2,4-pyrimidinediamine]"
6,43.8,"Cc1ccc(Nc2ncc(F)c(Nc3ccc(OCC(N)=O)c(F)c3)n2)cc1S(N)(=O)=O [Compound I-102, N4-(4-Aminocarbonylmethoxy-3-fluorophenyl)-N2-(3-aminosulfonyl-4-methylphenyl)-5-fluoro-2,4-pyrimidinediamine]"
7,8.26,"NS(=O)(=O)c1ccc(Nc2ncc(F)c(Nc3ccc(Cc4ccncc4)cc3)n2)cc1 [III-71, N2-(4-Aminosulfonylphenyl)-5-fluoro-N4-[4-(4-pyridinylmethyl)phenyl]-2,4-pyrimidinediamine]"
8,5.52,"Cc1ccc(Nc2ncc(F)c(Nc3ccc(Oc4cccnc4)cc3)n2)cc1S(N)(=O)=O [II-12, N2-(3-Aminosulfonyl-4-methylphenyl)-5-fluoro-N4-[4-(3-pyridyloxy)phenyl]-2,4-pyrimidinediamine]"
9,17,"COc1cc(Nc2nc(Nc3ccc(S(N)(=O)=O)cc3)ncc2F)ccc1OCC#N [Compound I-45, N2-(4-Aminosulfonylphenyl)-N4-(4-cyanomethoxy-3-methoxyphenyl)-5-fluoro-2,4-pyrimidinediamine]"
10,9.49,"NS(=O)(=O)c1ccc(Nc2ncc(F)c(Nc3ccc(OCCN4CCOCC4)cc3)n2)cc1 [Compound I-205, N2-(4-Aminosulfonylphenyl)-5-fluoro-N4-[4-(2-morpholinoethyloxy)phenyl)-2,4-pyrimidinediamine]"
11,10.5,"Cc1cc(COc2ccc(Nc3nc(Nc4cccc(S(N)(=O)=O)c4)ncc3F)cc2)no1 [Compound I-230, N2-(3-Aminosulfonylphenyl)-5-fluoro-N4-[4-(5-methylisoxazol-3-yl)methyleneoxyphenyl]-2,4-pyrimidinediamine]"
12,51.2,"NC(=O)COc1ccc(Nc2nc(Nc3cccc(S(N)(=O)=O)c3)ncc2F)cc1F [Compound I-101, N4-(4-Aminocarbonylmethoxy-3-fluorophenyl)-N2-(3-aminosulfonylphenyl)-5-fluoro-2,4-pyrimidinediamine]"
13,91.5,"Cc1cnc(Nc2cccc(S(N)(=O)=O)c2)nc1Nc1ccc(OCC(=O)N(C)C)c(F)c1 [Compound I-138, N2-(3-Aminosulfonylphenyl)-N4-(4-dimethylaminocarbonylmethoxy-3-fluorophenyl)-5-methyl-2,4-pyrimidinediamine]"
14,55.5,"CN(C)C(=O)OCCc1ccc(Nc2nc(Nc3cccc(S(N)(=O)=O)c3)ncc2F)cc1 [III-57, N2-(3-Aminosulfonylphenyl)-N4-{4-[2-(dimethylaminocarbonyloxy)ethyl]phenyl}-5-fluoro-2,4-pyrimidinediamine]"
15,6.64,"Cc1cc(Nc2nc(Nc3cccc(S(N)(=O)=O)c3)ncc2F)ccc1CCC#N [III-20, N2-(3-Aminosulfonylphenyl)-N4-[4-(2-cyanoethyl)-3-methylphenyl]-5-fluoro-2,4-pyrimidinediamine]"
16,31.1,"NC(=O)COc1ccc(Nc2nc(Nc3ccc(S(N)(=O)=O)cc3)ncc2F)cc1Cl [Compound I-97, N4-(4-Aminocarbonylmethoxy-3-chlorophenyl)-N2-(4-aminosulfonylphenyl)-5-fluoro-2,4-pyrimidinediamine]"
17,11.6,"Cc1ccc(Nc2ncc(C)c(Nc3ccc(OCC(=O)N(C)C)c(F)c3)n2)cc1S(N)(=O)=O [Compound I-139, N2-(3-Aminosulfonyl-4-methylphenyl)-N4-(4-dimethylaminocarbonylmethoxy-3-fluorophenyl)-5-methyl-2,4-pyrimidinediamine]"
18,37.3,"NC(=O)COc1ccc(Nc2nc(Nc3cccc(S(N)(=O)=O)c3)ncc2F)cc1Cl [Compound I-98, N4-(4-Aminocarbonylmethoxy-3-chlorophenyl)-N2-(3-aminosulfonylphenyl)-5-fluoro-2,4-pyrimidinediamine]"
19,76.2,"NS(=O)(=O)c1cccc(Nc2ncc(F)c(NCCc3ccc(-n4ccnc4)cc3)n2)c1 [III-87, N2-(3-Aminosulfonylphenyl)-5-fluoro-N4-[4-(1-imidazolyl)phenethyl]-2,4-pyrimidinediamine]"
20,25.5,"CNC(=O)OCCc1ccc(Nc2nc(Nc3cccc(S(N)(=O)=O)c3)ncc2F)cc1 [III-60, N2-(3-Aminosulfonylphenyl)-5-fluoro-N4-{4-[2-(methylaminocarbonyloxy)ethyl]phenyl}-2,4-pyrimidinediamine]"
21,5.77,"Cc1ccc(Nc2nc(Nc3cccc(S(N)(=O)=O)c3)ncc2F)cc1OCCN1CCOCC1 [Compound I-203, N2-(3-Aminosulfonylphenyl)-5-fluoro-N4-[4-methyl-3-(2-morpholinoethyloxy)phenyl]-2,4-pyrimidinediamine]"
22,3.24,"Cc1cnc(Nc2cccc(S(N)(=O)=O)c2)nc1Nc1ccc(OCC(=O)N(C)C)c(Cl)c1 [Compound I-135, N2-(3-Aminosulfonylphenyl)-N4-(3-chloro-4-dimethylaminocarbonylmethoxyphenyl)-5-methyl-2,4-pyrimidinediamine]"
23,0.947,"Cc1ccc(Nc2ncc(C)c(Nc3ccc(OCC#N)cc3)n2)cc1S(N)(=O)=O [Compound I-59, N2-(3-Aminosulfonyl-4-methylphenyl)-N4-(4-cyanomethoxyphenyl)-5-methyl-2,4-pyrimidinediamine]"
24,18.5,"COc1cc(Nc2nc(Nc3ccc(S(N)(=O)=O)cc3)ncc2F)cc(OCC#N)c1OC [Compound I-1, N2-(4-Aminosulphonylphenyl)-N4-(3-cyanomethoxy-4,5-dimethoxyphenyl)-5-fluoro-2,4-pyrimidinediamine]"
25,26,"Cc1cnc(Nc2cccc(S(N)(=O)=O)c2)nc1Nc1ccc(OCC(N)=O)cc1 [Compound I-109, N4-(4-Aminocarbonylmethoxyphenyl)-N2-(3-aminosulfonylphenyl)-5-methyl-2,4-pyrimidinediamine]"
26,8.11,"Cc1ccc(Nc2ncc(C)c(Nc3ccc(OCC(=O)N(C)C)c(Cl)c3)n2)cc1S(N)(=O)=O [Compound I-136, N2-(3-Aminosulfonyl-4-methylphenyl)-N4-(3-chloro-4-dimethylaminocarbonylmethoxyphenyl)-5-methyl-2,4-pyrimidinediamine]"
